In patent US20230201487A1, “NEBULIZER DEVICE OPTIMIZATION FOR IMPROVED AEROSOL PARAMETERS AND USES THEREOF” (Avalyn Pharma Inc., priority 2020, published 2023):
Marks after values point to notes of the source that are not given here.

How the values were obtained:
Format in all cases: physicochemical
[1] = Respirable delivered dose during breath simulation, inspiratory filters, HPLC; design: Slope of respirable delivered dose: unit not given here; conditions: for Total respirable delivered pirfenidone dose over 8 minutes: 8 mL of 12.5 mg/mL
Experimental: For a more clinically relevant comparison, in a second analysis, of aerosol delivery parameters for pirfenidone in solution, the respirable delivered dose (RDD; amount of deposited pirfenidone from aerosol droplets less than 5 microns in diameter) was measured during breath simulation (adult breathing pattern, 500 mL tidal volume, 15 breaths/min with a 1:1 inhalation: exhalation ratio) using a Compas 2 breath simulator was used as follows. Briefly, twelve investigational eFlow® (with 6 L and 6 XL aerosol mixing chambers) with a single set of 6 (six) aerosol head class 35 (6 total heads; Table 1) were used in both (about 49 cc volume) and XL (about 98 cc volume) aerosol mixing chamber configurations and tested in duplicate with the 8 mL medicine cup reservoir under atmospheric conditions (vented) and permitting generation of negative pressure (non-vented) during nebulization. An 8 mL dose (aqueous pirfenidone solution at concentration of 12.5 mg/ml) was loaded into the medicine cup reservoir and nebulization initiated. After 2, 4, 6 and 8 min of nebulization, inspiratory filters were collected and extracted for pirfenidone quantitation using HPLC analysis. A final filter was used after 8 min to collect remaining dose. The following exemplary replicates were performed: A. Head 1/L/vented, B. Head 1/L/non-vented, C. Head 1/XL/vented, D. Head 1/XL/non-vented, and repeated in the following order: A, B, C, D, A, B, C, D. Results are shown in Table 4.

[2] = Aerosol head/assembled device correlation study (TOR, VMD, GSD, nebulization time), 53 aerosol heads; conditions: Vented, XL Device
Experimental: To establish an aerosol generator (head) specification meeting the desired delivery of 8 mL aqueous pirfenidone solution in the assembled nebulizer device 1 not exceeding 16 minute delivery time (or an 0.5 mL/min output rate), a correlation study between the head-only performance with 0.9% NaCl (saline) and the assembled nebulizer device 1 (vented, XL configuration) performance with aqueous pirfenidone was conducted. Using heads only, the aerosol characteristics total output rate (TOR), volumetric median diameter (VMD) and geometric standard deviation (GSD) were performed under constant negative pressure (−250 mbar; relative to atmospheric pressure) and under ambient, atmospheric pressure conditions (0 mbar; relative to atmospheric pressure).
These heads were either tested alone using a special apparatus (saline −250 mbar or 0 mbar) or in assembled devices (saline and aqueous pirfenidone; 8 mL vented medicine cup reservoir 3 and XL aerosol mixing chamber 8 configuration).

[3] = Respirable aerosol droplet output rate by laser diffraction and gravimetric total output rate, simulated breathing, eFlow nebulizer; conditions: for Output rate Benefit, Combined Effect (Vented + XL): vented XL vs. non-vented L
Experimental: As an initial analysis, emitted aerosol saline and pirfenidone aqueous solution formulation droplet size as a function of time was measured using a Helos, Sympatec laser under partially simulated breathing conditions (adult breathing pattern, 500 mL tidal volume, 15 breaths/min with a 1:1 inhalation: exhalation ratio) using a Compas 2 breath simulator. Briefly, twelve investigational PART eFlow® nebulizers (with 6 L and 6 XL aerosol mixing chambers) with a single set of 6 (six) aerosol head class 35 (6 total heads; Table 1) were used in both L (about 49 cc volume aerosol mixing chamber) and XL (about 98 cc volume aerosol mixing chamber) configurations and tested in triplicate with the 8 mL of pirfenidone aqueous solution medicine cup reservoir under atmospheric conditions (vented) and permitting generation of negative pressure (non-vented). The following exemplary replicates were performed: A. Head 1/L/vented, B. Head 1/L/non-vented, C. Head 1/XL/vented, D. Head 1/XL/non-vented, and repeated in the following order: A, B, C, D, A, B, C, D, A, B, C, D. Results are shown in Table 2.
In this analysis, respirable aerosol droplet output rate of saline and pirfenidone formulation was determined by multiplying the respirable fraction (RF; percent emitted aerosol droplets with a diameter less than 5 microns at 20 second increments) by total output rate (TOR; calculated by dividing the total nebulizer weight loss by nebulization duration). Saline was made as 150 mM sodium chloride in water, while the pirfenidone formulation was 12.5 mg/mL pirfenidone in 5 mM citrate buffer, pH 6.0, 150 mM sodium chloride and 0.75 mM sodium saccharin in water. Duration to nebulize 8 mL saline was 8.6 min, 12.6 min, 8.5 min and 12.0 min for vented “L”, non-vented “L”, vented “XL” and non-vented “XL”, respectively. Duration to nebulize 8 mL AP01 was 8.4 min, 12.3 min, 8.3 min and 12.4 min for vented “L”, non-vented “L”, vented “XL” and non-vented “XL”, respectively.

Theoretical total delivery rate ([1]; assuming a fifty percent respirable delivered dose, 12.5 mg/mL): 6.25 mg per minute
Slope of respirable delivered dose ([1]; non-vented (NV), L aerosol mixing chamber): −0.16
Respirable Delivered Dose ([1]; non-vented (NV), L aerosol mixing chamber, 0-2 min): 5.75 mg/time increment
Respirable Delivered Dose ([1]; non-vented (NV), L aerosol mixing chamber, 2-4 min): 5.71 mg/time increment
Respirable Delivered Dose ([1]; non-vented (NV), L aerosol mixing chamber, 4-6 min): 5.49 mg/time increment
Respirable Delivered Dose ([1]; non-vented (NV), L aerosol mixing chamber, 6-8 min): 5.27 mg/time increment
Slope of respirable delivered dose ([1]; non-vented (NV), XL aerosol mixing chamber): −0.20
Respirable Delivered Dose ([1]; non-vented (NV), XL aerosol mixing chamber, 0-2 min): 6.50 mg/time increment
Respirable Delivered Dose ([1]; non-vented (NV), XL aerosol mixing chamber, 2-4 min): 6.44 mg/time increment
Respirable Delivered Dose ([1]; non-vented (NV), XL aerosol mixing chamber, 4-6 min): 6.37 mg/time increment
Respirable Delivered Dose ([1]; non-vented (NV), XL aerosol mixing chamber, 6-8 min): 5.87 mg/time increment
RDD Benefit, Increased Aerosol mixing chamber (XL) ([1]; non-vented L vs. non-vented XL, 0-2 min): 13.15^g %
RDD Benefit, Increased Aerosol mixing chamber (XL) ([1]; non-vented L vs. non-vented XL, 6-8 min): 11.28^g %
Respirable delivered dose per minute ([1]; non-vented L, 12.5 mg/mL): 2.78 mg/min
Total respirable delivered pirfenidone dose over 8 minutes ([1]; non-vented L): 22.22 mg
Slope of respirable delivered dose ([1]; vented (V), L aerosol mixing chamber): 0.12
Respirable Delivered Dose ([1]; vented (V), L aerosol mixing chamber, 0-2 min, 8 mL of 12.5 mg/ml): 5.97 mg/time increment
Respirable Delivered Dose ([1]; vented (V), L aerosol mixing chamber, 2-4 min): 6.16 mg/time increment
Respirable Delivered Dose ([1]; vented (V), L aerosol mixing chamber, 4-6 min): 6.33 mg/time increment
Respirable Delivered Dose ([1]; vented (V), L aerosol mixing chamber, 6-8 min): 6.32 mg/time increment
Slope of respirable delivered dose ([1]; vented (V), XL aerosol mixing chamber): 0.13
Respirable Delivered Dose ([1]; vented (V), XL aerosol mixing chamber, 0-2 min): 6.65 mg/time increment
Respirable Delivered Dose ([1]; vented (V), XL aerosol mixing chamber, 2-4 min): 7.07 mg/time increment
Respirable Delivered Dose ([1]; vented (V), XL aerosol mixing chamber, 4-6 min): 7.01 mg/time increment
Respirable Delivered Dose ([1]; vented (V), XL aerosol mixing chamber, 6-8 min): 7.11 mg/time increment
RDD Benefit, Increased Aerosol mixing chamber (XL) ([1]; vented L vs. vented XL, 0-2 min): 11.35^e %
RDD Benefit, Increased Aerosol mixing chamber (XL) ([1]; vented L vs. vented XL, 6-8 min): 12.49^e %
Respirable delivered dose per minute ([1]; vented XL, 12.5 mg/mL): 3.48 mg/min
Total respirable delivered pirfenidone dose over 8 minutes ([1]; vented XL): 27.84 mg
Total Output Rate (TOR), Average [2]: 0.782 g/min
Total Output Rate (TOR), Max [2]: 1.049 g/min
Total Output Rate (TOR), Min [2]: 0.382 g/min
Benefit of aerosol mixing chamber volume on respirable aerosol droplet output rate ([3]; all device configurations regardless of medicine cup pressure): −2 to −5.5%
Output rate Benefit, Maintaining Atmospheric Pressure (Vented) ([3]; vented L vs. non-vented L, 0-2 min): about +19.4%
Output rate Benefit, Maintaining Atmospheric Pressure (Vented) ([3]; vented L vs. non-vented L, 6-8 min): about +17.5%
Output rate Benefit, Combined Effect (Vented + XL) ([3]; 0-2 min): about +17%
Output rate Benefit, Combined Effect (Vented + XL) ([3]; 6-8 min): ~+12.6%
Output rate Benefit, Maintaining Atmospheric Pressure (Vented) ([3]; vented XL vs. non-vented XL, 0-2 min): about +23.8%
Output rate Benefit, Maintaining Atmospheric Pressure (Vented) ([3]; vented XL vs. non-vented XL, 6-8 min): about +17%
SMILES: Cc1ccc(=O)n(-c2ccccc2)c1 [pirfenidone, 5-methyl-1-phenyl-2-(1H)-pyridone]
